Experimental data published in patent publication US8003649B2 (AstraZeneca AB, priority 2007, dated 2011).

Target: T1, Androgen Receptor (AR) (Homo sapiens, UniProt P10275, T878A)
T1 construct: cell based immuno-fluorescence assay using the LNCaP prostate epithelial cell line; endogenous in cells; host or cells: LNCaP clone FGC (ATCC CRL-1740)
T1 sequence (P10275 1-920 T878A): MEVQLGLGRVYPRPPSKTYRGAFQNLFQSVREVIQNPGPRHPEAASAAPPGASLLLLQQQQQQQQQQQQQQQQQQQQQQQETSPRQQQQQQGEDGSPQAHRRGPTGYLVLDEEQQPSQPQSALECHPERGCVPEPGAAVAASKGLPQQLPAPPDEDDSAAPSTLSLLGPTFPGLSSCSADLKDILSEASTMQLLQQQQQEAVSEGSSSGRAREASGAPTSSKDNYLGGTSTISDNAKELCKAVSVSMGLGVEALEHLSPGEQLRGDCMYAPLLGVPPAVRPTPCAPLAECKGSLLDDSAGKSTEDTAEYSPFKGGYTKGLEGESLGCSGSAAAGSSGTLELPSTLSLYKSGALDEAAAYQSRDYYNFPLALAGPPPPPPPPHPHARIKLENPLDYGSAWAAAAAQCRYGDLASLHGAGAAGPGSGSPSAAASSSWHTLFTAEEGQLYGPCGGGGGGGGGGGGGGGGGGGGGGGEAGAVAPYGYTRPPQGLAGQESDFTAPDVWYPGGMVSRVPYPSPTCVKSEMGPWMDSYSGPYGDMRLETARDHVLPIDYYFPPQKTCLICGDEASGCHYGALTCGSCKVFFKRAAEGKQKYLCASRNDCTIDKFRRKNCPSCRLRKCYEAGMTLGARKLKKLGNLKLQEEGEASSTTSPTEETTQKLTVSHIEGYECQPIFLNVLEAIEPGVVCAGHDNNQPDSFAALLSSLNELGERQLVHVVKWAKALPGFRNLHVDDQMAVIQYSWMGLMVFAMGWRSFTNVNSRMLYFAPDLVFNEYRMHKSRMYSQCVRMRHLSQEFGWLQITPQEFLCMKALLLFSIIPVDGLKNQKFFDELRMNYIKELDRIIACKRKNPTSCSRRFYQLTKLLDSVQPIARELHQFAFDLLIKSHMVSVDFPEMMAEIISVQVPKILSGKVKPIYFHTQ
Assay: LNCaP Androgen Receptor Down-regulation Cell Assay (immunofluorescence end point)
Type: cell-based
Conditions: LNCaP prostate carcinoma cells, compound incubation 20-22 hours, 50% reduction of the AR signal; read-out: Androgen Receptor Down-regulation Assay (a) IC50/μM
Procedure, shortened: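 AR loss reported as IC50 from curve fits of fluorescence dose-response data, with AR immunostained and read by laser-scanning cytometry. Compound exposure was 20-22 h at 37° C in LNCaP cells grown in 5% charcoal-stripped FBS and plated overnight beforehand.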

Row | SMILES | DC50
1 | CN1CCN(CCCOc2ccc(OC3CCN(c4ccc5nnc(C(F)(F)F)n5n4)CC3)cc2)CC1 [Example 437] | 0.53 µM
2 | FC(F)(F)c1nnc2ccc(N3CCC(Oc4ccc(OCc5ccon5)cc4)CC3)nn12 [Example 438] | 1.6 µM
3 | FC(F)(F)c1nnc2ccc(N3CCC(Oc4ccc(OCc5cnco5)cc4)CC3)nn12 [Example 439] | 0.48 µM
4 | CN1CCN(CCOc2ccc(OC3CCN(c4ccc5nnc(C(F)(F)F)n5n4)CC3)cc2)CC1 [Example 440] | 2.3 µM
5 | Cn1nccc1CCOc1ccc(OC2CCN(c3ccc4nnc(C(F)(F)F)n4n3)CC2)cc1 [Example 441] | 0.22 µM
6 | Cn1nccc1COc1ccc(OC2CCN(c3ccc4nnc(C(F)(F)F)n4n3)CC2)cc1 [Example 442] | 0.44 µM
7 | CN(C)CCCOc1cccc(OC2CCN(c3ccc4nnc(C(F)(F)F)n4n3)CC2)c1 [Example 443] | 1.5 µM
8 | FC(F)(F)c1nnc2ccc(N3CCC(Oc4cccc(OCCCN5CCNCC5)c4)CC3)nn12 [Example 445] | 1.6 µM
9 | Cc1cc(COc2cccc(OC3CCN(c4ccc5nnc(C(F)(F)F)n5n4)CC3)c2)no1 [Example 446] | 0.7 µM
10 | N#Cc1ccc(OC2CCN(c3ccc4nnc(C(F)(F)F)n4n3)CC2)cn1 [Example 448, 5-[[1-[3-(trifluoromethyl)-[1,2,4]triazolo[4,3-b]pyridazin-6-yl]piperidin-4-yl]oxy]pyridine-2-carbonitrile] | 6.3 µM
11 | N#Cc1cc(OC2CCN(c3ccc4nnc(C(F)(F)F)n4n3)CC2)ccn1 [Example 449, 4-[[1-[3-(trifluoromethyl)[1,2,4]triazolo[4,3-b]pyridazin-6-yl]piperidin-4-yl]oxy]pyridine-2-carbonitrile] | 4.8 µM
12 | O=S(=O)(c1ccc(F)cc1)N1CC2CN(c3ccc4nnc(C(F)(F)F)n4n3)CC2C1 (stereo not drawn) [Example 453] | 5.7 µM
13 | COc1cccc(S(=O)(=O)N2CC3CN(c4ccc5nnc(C(F)(F)F)n5n4)CC3C2)c1 (stereo not drawn) [Example 454] | 9.2 µM
14 | O=S(=O)(c1cccc(F)c1)N1CCCN(c2ccc3nnc(C(F)(F)F)n3n2)CC1 [Example 456] | 21 µM
15 | O=S(=O)(c1ccccc1F)N1CCCN(c2ccc3nnc(C(F)(F)F)n3n2)CC1 [Example 460] | 5.1 µM
16 | COc1ccccc1OCC1CCN(c2ccc3nnc(C(F)(F)F)n3n2)CC1 [Example 462] | 7.7 µM
17 | Fc1ccc(OCC2CCN(c3ccc4nnc(C(F)(F)F)n4n3)CC2)cc1 [Example 463] | 0.98 µM
18 | Fc1cccc(OCC2CCN(c3ccc4nnc(C(F)(F)F)n4n3)CC2)c1 [Example 464] | 1.4 µM
19 | COc1cccc(OCC2CCN(c3ccc4nnc(C(F)(F)F)n4n3)CC2)c1 [Example 466] | > 19 µM
20 | Fc1ccccc1OCC1CCN(c2ccc3nnc(C(F)(F)F)n3n2)CC1 [Example 467] | 4.9 µM
21 | FC(F)(F)c1ccc(OCC2CCN(c3ccc4nnc(C(F)(F)F)n4n3)CC2)cc1 [Example 468] | > 11 µM
22 | N#Cc1ccccc1OCC1CCN(c2ccc3nnc(C(F)(F)F)n3n2)CC1 [Example 469] | 1.8 µM
23 | FC(F)(F)c1nnc2ccc(N3CCC(COc4ccc(Cl)cc4)CC3)nn12 [Example 470] | 4.6 µM
24 | FC(F)(F)c1ccccc1OCC1CCN(c2ccc3nnc(C(F)(F)F)n3n2)CC1 [Example 471] | 2 µM
25 | FC(F)(F)c1nnc2ccc(N3CCC(COc4cccc(Cl)c4)CC3)nn12 [Example 473] | 3.2 µM
26 | N#Cc1ccc(OCC2CCN(c3ccc4nnc(C(F)(F)F)n4n3)CC2)cc1 [Example 474] | 0.96 µM
27 | FC(F)(F)c1nnc2ccc(N3CCC(COc4ccccc4Cl)CC3)nn12 [Example 475] | > 15 µM

Row | SMILES | DC50
28 | N#Cc1cccc(OCC2CCN(c3ccc4nnc(C(F)(F)F)n4n3)CC2)c1 [Example 476] | 3.5 µM
29 | FC(F)(F)c1nnc2ccc(N3CCN(Cc4c[nH]c5cnccc45)CC3)nn12 [Example 477] | 6.3 µM
30 | FC(F)(F)c1nnc2ccc(N3CCN(Cc4c[nH]c5ccncc45)CC3)nn12 [Example 480] | 9.6 µM
31 | FC(F)(F)c1nnc2ccc(N3CCC(COC4COC4)CC3)nn12 [Example 481] | 6.6 µM
32 | FC(F)(F)COCC1CCN(c2ccc3nnc(C(F)(F)F)n3n2)CC1 [Example 482] | 1.8 µM
33 | Fc1cccc(OC2CN(c3ccc4nnc(C(F)(F)F)n4n3)C2)c1 [Example 483, 6-[3-(3-fluorophenoxy)azetidin-1-yl]-3-(trifluoromethyl)[1,2,4]triazolo[4,3-b]pyridazine] | > 30 µM
34 | Fc1ccc(OC2CN(c3ccc4nnc(C(F)(F)F)n4n3)C2)cc1 [Example 484] | > 14 µM
35 | COc1ccc(OC2CN(c3ccc4nnc(C(F)(F)F)n4n3)C2)cc1 [Example 486] | > 13 µM
36 | CC(C)(C)OCC1CCN(c2ccc3nnc(C(F)(F)F)n3n2)CC1 [Example 489, 6-[4-(tert-butoxymethyl)piperidin-1-yl]-3-(trifluoromethyl)[1,2,4]triazolo[4,3-b]pyridazine] | 3.6 µM
37 | Fc1cccc(OCC2CN(c3ccc4nnc(C(F)(F)F)n4n3)C2)c1 [Example 490] | 5.9 µM
38 | Fc1cccc(OCC2CN(c3ccc4nnc(C(F)(F)F)n4n3)C2)c1 [Example 491] | 7.2 µM
39 | FC(F)(F)c1nnc2ccc(N3CC(COc4cccnc4)C3)nn12 [Example 492] | > 30 µM
40 | COc1ccc2[nH]cc(C3CCN(c4ccc5nnc(C(F)(F)F)n5n4)CC3)c2c1 [Example 494, 6-[4-(5-methoxy-1H-indol-3-yl)piperidin-1-yl]-3-(trifluoromethyl)[1,2,4]triazolo[4,3-b]pyridazine] | 0.43 µM
41 | N#Cc1ccc2[nH]cc(C3CCN(c4ccc5nnc(C(F)(F)F)n5n4)CC3)c2c1 [Example 495, 3-[1-[3-(trifluoromethyl)[1,2,4]triazolo[4,3-b]pyridazin-6-yl]piperidin-4-yl]-1H-indole-5-carbonitrile] | 0.35 µM
42 | CN1CCN(C(=O)c2ccc3[nH]cc(C4CCN(c5ccc6nnc(C(F)(F)F)n6n5)CC4)c3c2)CC1 [Example 497] | 2.8 µM
43 | COCCNC(=O)c1ccc2[nH]cc(C3CCN(c4ccc5nnc(C(F)(F)F)n5n4)CC3)c2c1 [Example 498] | 2.4 µM
44 | CN(C)C(=O)c1ccc2[nH]cc(C3CCN(c4ccc5nnc(C(F)(F)F)n5n4)CC3)c2c1 [Example 499] | 1.7 µM
45 | O=C(c1ccc2[nH]cc(C3CCN(c4ccc5nnc(C(F)(F)F)n5n4)CC3)c2c1)N1CC[C@@H](O)C1 [Example 500] | > 18 µM
46 | O=C(c1ccc2[nH]cc(C3CCN(c4ccc5nnc(C(F)(F)F)n5n4)CC3)c2c1)N1CCOCC1 [Example 502] | 2.2 µM
47 | O=C(NCCN1CCOCC1)c1ccc2[nH]cc(C3CCN(c4ccc5nnc(C(F)(F)F)n5n4)CC3)c2c1 [Example 503] | 4.3 µM
48 | COCCN(C)C(=O)c1ccc2[nH]cc(C3CCN(c4ccc5nnc(C(F)(F)F)n5n4)CC3)c2c1 [Example 504] | 1.9 µM
49 | O=C(c1ccc2[nH]cc(C3CCN(c4ccc5nnc(C(F)(F)F)n5n4)CC3)c2c1)N1CC[C@H](O)C1 [Example 505] | > 19 µM
50 | FC(F)(F)c1nnc2ccc(N3CCC(c4c[nH]c5ccccc45)CC3)nn12 [Example 507, 6-[4-(1H-indol-3-yl)piperidin-1-yl]-3-(trifluoromethyl)[1,2,4]triazolo[4,3-b]pyridazine] | 0.53 µM
51 | FC(F)(F)c1nnc2ccc(N3CCC(c4cn(CCN5CCCC5)c5ccccc45)CC3)nn12 [Example 508, 6-[4-[1-(2-pyrrolidin-1-ylethyl)-1H-indol-3-yl]piperidin-1-yl]-3-(trifluoromethyl)[1,2,4]triazolo[4,3-b]pyridazine] | 2.2 µM
52 | COCCN(C)C(=O)c1ccc(C2CCN(c3ccc4nnc(C(F)(F)F)n4n3)CC2)cc1 [Example 512, N-(2-methoxyethyl)-N-methyl-4-[1-[3-(trifluoromethyl)[1,2,4]triazolo[4,3-b]pyridazin-6-yl]piperidin-4-yl]benzamide] | 0.87 µM
53 | Cn1nccc1CCOc1ccc(N2CCN(c3ccc4nnc(C(F)(F)F)n4n3)CC2)cc1 [Example 514, 6-[4-[4-[2-(1-methyl-1H-pyrazol-5-yl)ethoxy]phenyl]piperazin-1-yl]-3-(trifluoromethyl)[1,2,4]triazolo[4,3-b]pyridazine] | 0.87 µM
54 | FC(F)(F)c1nnc2ccc(N3CCCC(c4ccccc4)C3)nn12 (stereo not drawn) [Example 515, 6-(3-phenylpiperidin-1-yl)-3-(trifluoromethyl)[1,2,4]triazolo[4,3-b]pyridazine] | 1.4 µM
